# How the values were obtained:
# Format in all cases: biochemical
# HCMV polymerase = biological target: T1, HCMV polymerase (Human cytomegalovirus, UniProt P08546); experiment: HCMV polymerase assay (scintillation proximity assay, modified version); conditions: modified SPA assay, compounds diluted in 100% DMSO, 4.5 mM DTT
# T1 construct: made in house; host or cells: recombinant baculovirus-infected SF-9 cells
# Description: (§1) The HCMV polymerase assay is performed using a scintillation proximity assay (SPA) as described in several references, such as N. D. Cook, et al., Pharmaceutical Manufacturing International, pages 49-53 (1992); K. Takeuchi, Laboratory Practice, September issue (1992); U.S. Pat. No. 4,568,649 (1986); which are incorporated by reference herein. Reactions are performed in 96-well plates. The assay is conducted in 100 μl volume with 5.4 mM HEPES (pH 7.5), 11.7 mM KCl, 4.5 mM MgCl2, 0.36 mg/ml BSA, and 90 nM ^3H-dTTP. Assays are run with and without CHAPS, (3-[(3-Cholamidopropyl)-dimethylammonio]-1-propane-sulfonate) at a final concentration of 2 mM. HCMV polymerase is diluted in enzyme dilution buffer containing 50% glycerol, 250 mM NaCl, 10 mM HEPES (pH 7.5), 100 μg/ml BSA, and 0.01% sodium azide. The HCMV polymerase, which is expressed in recombinant baculovirus-infected SF-9 cells and purified according to literature procedures, is added at 10% (or 10 μl) of the final reaction volume, i.e., 100 μl. Compounds are diluted in 50% DMSO and 10 μl are added to each well. Control wells contain an equivalent concentration of DMSO. Unless noted otherwise, reactions are initiated via the addition of 6 nM biotinylated poly(dA)-oligo(dT) template/primer to reaction mixtures containing the enzyme, substrate, and compounds of interest. Plates are incubated in a 25 C or 37 C H2O bath and terminated via the addition of 40 μl/reaction of 0.5 M EDTA (pH 8) per well. Reactions are terminated within the time-frame during which substrate incorporation is linear and varied depending upon the enzyme and conditions used, i.e., 30 min. for HCMV polymerase. Ten μl of streptavidin-SPA beads (20 mg/ml in PBS/10% glycerol) are added following termination of the reaction. Plates are incubated 10 min. at 37 C, then equilibrated to room temperature, and counted on a Packard Topcount. Linear regressions are performed and IC50's are calculated using computer software.
# A modified version of the above HCMV polymerase assay is performed as described above, but with the following changes: Compounds are diluted in 100% DMSO until final dilution into assay buffer. In the previous assay, compounds are diluted in 50% DMSO. 4.5 mM dithiotherotol (DTT) is added to the polymerase buffer. […] Other viral polymerase assays are performed using procedures similar to those described above.
# HSV polymerase = HSV polymerase (Human herpesvirus 1, UniProt P04293); experiment: HSV polymerase assay (similar procedure)
# Chain of HSV polymerase (P04293 whole entry): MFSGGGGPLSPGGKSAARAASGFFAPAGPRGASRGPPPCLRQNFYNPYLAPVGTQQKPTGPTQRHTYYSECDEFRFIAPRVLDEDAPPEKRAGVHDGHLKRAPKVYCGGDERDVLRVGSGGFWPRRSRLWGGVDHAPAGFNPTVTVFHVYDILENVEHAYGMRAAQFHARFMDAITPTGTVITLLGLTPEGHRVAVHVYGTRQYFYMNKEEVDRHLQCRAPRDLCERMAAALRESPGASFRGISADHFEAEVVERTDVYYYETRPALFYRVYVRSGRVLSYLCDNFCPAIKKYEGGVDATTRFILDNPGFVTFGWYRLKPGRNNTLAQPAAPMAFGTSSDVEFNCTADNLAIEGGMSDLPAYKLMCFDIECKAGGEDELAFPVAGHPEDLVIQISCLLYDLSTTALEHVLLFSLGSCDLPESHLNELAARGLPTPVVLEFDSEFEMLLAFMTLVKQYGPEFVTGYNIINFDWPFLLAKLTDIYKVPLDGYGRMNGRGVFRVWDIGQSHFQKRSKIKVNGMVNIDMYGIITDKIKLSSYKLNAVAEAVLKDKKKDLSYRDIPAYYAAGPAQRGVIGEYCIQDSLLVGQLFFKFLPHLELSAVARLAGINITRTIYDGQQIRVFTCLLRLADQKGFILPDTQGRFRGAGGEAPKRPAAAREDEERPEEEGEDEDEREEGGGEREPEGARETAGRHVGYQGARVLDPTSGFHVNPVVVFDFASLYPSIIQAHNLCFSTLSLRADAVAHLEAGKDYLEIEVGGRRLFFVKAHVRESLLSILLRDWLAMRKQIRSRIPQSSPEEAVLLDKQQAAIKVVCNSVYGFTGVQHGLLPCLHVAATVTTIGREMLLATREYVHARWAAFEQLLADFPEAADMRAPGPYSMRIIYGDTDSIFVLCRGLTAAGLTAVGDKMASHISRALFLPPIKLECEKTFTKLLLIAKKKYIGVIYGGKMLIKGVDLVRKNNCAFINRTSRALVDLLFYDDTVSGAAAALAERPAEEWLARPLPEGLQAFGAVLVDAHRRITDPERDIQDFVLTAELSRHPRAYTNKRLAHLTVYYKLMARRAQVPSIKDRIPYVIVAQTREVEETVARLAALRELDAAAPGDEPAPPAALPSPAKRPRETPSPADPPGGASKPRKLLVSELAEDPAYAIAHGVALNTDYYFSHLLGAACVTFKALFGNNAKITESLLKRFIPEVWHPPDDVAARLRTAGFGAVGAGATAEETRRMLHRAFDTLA
# Description: as §1, with “Unless noted otherwise, reactions are initiated via the addition of 6 nM biotinylated poly(dA)-oligo(dT) template/primer to reaction mixtures containing the enzyme, substrate, and compounds of interest. Plates are incubated in a 25 C or 37 C H2O bath and terminated via the addition of 40 μl/reaction of 0.5 M EDTA (pH 8) per well. Reactions are terminated within the time-frame during which substrate incorporation is linear and varied depending upon the enzyme and conditions used, i.e., 30 min. for HCMV polymerase. Ten μl of streptavidin-SPA beads (20 mg/ml in PBS/10% glycerol) are added following termination of the reaction.” left out, “software. […]” for “software.”
# VZV polymerase = VZV polymerase (Varicella-zoster virus, UniProt P09252); experiment: VZV polymerase assay (similar procedure)
# Chain of VZV polymerase (P09252 whole entry): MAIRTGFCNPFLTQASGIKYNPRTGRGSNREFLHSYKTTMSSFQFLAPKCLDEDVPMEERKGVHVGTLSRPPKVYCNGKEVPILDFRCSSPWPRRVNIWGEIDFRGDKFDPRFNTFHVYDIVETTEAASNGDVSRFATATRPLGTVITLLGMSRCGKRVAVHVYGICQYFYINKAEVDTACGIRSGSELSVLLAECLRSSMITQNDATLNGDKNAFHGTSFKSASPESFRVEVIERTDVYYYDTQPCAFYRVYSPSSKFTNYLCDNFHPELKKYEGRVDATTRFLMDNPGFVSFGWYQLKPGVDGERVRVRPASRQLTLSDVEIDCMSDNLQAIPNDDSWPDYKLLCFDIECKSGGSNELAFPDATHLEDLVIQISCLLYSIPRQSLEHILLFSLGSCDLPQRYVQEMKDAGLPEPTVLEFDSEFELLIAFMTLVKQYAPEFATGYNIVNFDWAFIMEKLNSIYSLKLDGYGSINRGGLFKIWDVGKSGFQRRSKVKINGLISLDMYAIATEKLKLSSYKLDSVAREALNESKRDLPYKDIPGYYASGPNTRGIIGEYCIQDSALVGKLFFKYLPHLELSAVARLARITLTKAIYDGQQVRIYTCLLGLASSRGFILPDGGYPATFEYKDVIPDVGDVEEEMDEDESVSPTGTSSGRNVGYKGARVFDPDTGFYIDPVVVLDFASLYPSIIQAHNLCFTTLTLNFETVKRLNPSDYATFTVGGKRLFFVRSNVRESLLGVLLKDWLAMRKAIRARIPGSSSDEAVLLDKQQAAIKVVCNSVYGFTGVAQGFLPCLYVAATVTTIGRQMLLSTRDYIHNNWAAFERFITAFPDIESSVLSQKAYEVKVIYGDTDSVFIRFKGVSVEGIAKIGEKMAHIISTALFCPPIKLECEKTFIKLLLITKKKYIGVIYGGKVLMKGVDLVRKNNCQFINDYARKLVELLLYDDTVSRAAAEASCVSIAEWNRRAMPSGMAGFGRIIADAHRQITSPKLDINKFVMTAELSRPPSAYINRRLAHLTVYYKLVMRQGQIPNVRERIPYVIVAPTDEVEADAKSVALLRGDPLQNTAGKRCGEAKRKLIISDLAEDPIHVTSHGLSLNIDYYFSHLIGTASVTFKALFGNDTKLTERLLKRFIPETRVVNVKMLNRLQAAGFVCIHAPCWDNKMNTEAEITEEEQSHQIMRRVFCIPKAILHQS
# Description: as §1, with “Unless noted otherwise, reactions are initiated via the addition of 6 nM biotinylated poly(dA)-oligo(dT) template/primer to reaction mixtures containing the enzyme, substrate, and compounds of interest. Plates are incubated in a 25 C or 37 C H2O bath and terminated via the addition of 40 μl/reaction of 0.5 M EDTA (pH 8) per well. Reactions are terminated within the time-frame during which substrate incorporation is linear and varied depending upon the enzyme and conditions used, i.e., 30 min. for HCMV polymerase. Ten μl of streptavidin-SPA beads (20 mg/ml in PBS/10% glycerol) are added following termination of the reaction.” left out, “software. […]” for “software.”
# T1 sequence (P08546 whole entry): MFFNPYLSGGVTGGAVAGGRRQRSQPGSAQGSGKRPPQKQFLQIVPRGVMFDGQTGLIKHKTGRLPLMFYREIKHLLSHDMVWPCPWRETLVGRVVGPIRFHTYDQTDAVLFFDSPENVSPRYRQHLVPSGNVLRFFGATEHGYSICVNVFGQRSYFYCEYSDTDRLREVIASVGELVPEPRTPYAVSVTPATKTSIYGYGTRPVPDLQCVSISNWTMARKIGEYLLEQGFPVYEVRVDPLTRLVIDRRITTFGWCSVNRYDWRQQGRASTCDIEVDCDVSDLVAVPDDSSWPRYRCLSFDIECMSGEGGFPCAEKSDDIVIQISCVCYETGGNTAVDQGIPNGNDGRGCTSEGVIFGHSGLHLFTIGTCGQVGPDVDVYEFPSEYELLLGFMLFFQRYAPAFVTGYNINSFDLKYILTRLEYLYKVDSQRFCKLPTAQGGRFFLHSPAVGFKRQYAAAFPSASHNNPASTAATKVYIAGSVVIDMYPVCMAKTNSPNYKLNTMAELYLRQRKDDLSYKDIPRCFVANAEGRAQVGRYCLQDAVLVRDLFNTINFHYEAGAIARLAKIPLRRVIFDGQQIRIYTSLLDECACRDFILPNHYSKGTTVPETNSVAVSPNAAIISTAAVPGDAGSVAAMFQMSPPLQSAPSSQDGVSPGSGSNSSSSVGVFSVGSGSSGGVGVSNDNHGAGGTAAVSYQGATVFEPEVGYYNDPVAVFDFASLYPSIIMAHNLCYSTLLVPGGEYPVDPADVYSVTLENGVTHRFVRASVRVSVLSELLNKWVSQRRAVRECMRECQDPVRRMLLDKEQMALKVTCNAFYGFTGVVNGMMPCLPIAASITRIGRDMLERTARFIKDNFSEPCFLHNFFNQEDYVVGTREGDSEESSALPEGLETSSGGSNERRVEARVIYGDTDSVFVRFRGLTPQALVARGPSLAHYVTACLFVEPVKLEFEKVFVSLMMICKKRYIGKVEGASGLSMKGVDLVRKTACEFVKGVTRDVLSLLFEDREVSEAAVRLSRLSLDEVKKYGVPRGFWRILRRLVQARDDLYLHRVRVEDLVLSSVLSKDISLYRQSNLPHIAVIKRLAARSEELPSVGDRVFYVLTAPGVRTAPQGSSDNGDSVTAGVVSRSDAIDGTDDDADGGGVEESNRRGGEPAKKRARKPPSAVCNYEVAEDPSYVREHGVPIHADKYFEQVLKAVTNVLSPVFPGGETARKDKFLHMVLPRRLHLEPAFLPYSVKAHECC
Structure (SMILES),IC50 (HCMV polymerase),IC50 (HSV polymerase),IC50 (VZV polymerase)
"O=C(NCc1ccc(Cl)cc1)c1cn2c3c(cc(CN4CCOCC4)cc3c1=O)OCC2 [Example 1, N-(4-Chlorobenzyl)-9-(4-morpholinylmethyl)-7-oxo-2,3-dihydro-7H-[1,4]oxazino[2,3,4-ij]quinoline-6-carboxamide]",480 nM,–,–
"O=C(NCc1ccc(Cl)cc1)c1cn2c3c(cc(C#CCO)cc3c1=O)OCC2 [Example 2, N-(4-Chlorobenzyl)-9-(3-hydroxy-1-propynyl)-7-oxo-2,3-dihydro-7H-[1,4]oxazino[2,3,4-ij]quinoline-6-carboxamide]",1200 nM,–,–
"O=C(NCc1ccc(Cl)cc1)c1cn2c3c(cc(CCCO)cc3c1=O)OCC2 [Example 3A, N-(4-Chlorobenzyl)-9-(3-hydroxypropyl)-7-oxo-2,3-dihydro-7H-[1,4]oxazino[2,3,4-ij]quinoline-6-carboxamide]",< 310 nM,440 nM,210 nM
"CCCc1cc2c3c(c1)c(=O)c(C(=O)NCc1ccc(Cl)cc1)cn3CCO2 [Example 3B, N-(4-Chlorobenzyl)-7-oxo-9-propyl-2,3-dihydro-7H-[1,4]oxazino[2,3,4-ij]quinoline-6-carboxamide]",1800 nM,–,–
